We go through 14 molecules from patent US20240140991A1, “ANTIBIOTIC NATURAL PRODUCT ANALOGUES” (THE QUEEN'S UNIVERSITY OF BELFAST, priority 2021, published 2024).

≈ marks a conversion by molar mass, not a printed value. Positions of bridges follow the written chain, without caps; N, C: chain ends. Non-standard residues stand in square brackets, D forms with d. Residues, ends and D or L forms follow the SMILES beside them. ξ: configuration not given here. *: point of attachment. Octanoyl(7-Me) = CC(C)CCCCCC(=O)*; Hexanoyl(4ξ-Me) = CCC(C)CCC(=O)*; dOrn = NCCC[C@@H](N)C(=O)O; Orn = NCCC[C@H](N)C(=O)O; Dap = NC[C@H](N)C(=O)O; Alloc = C=CCOC(=O)*

In the test the test system is Escherichia coli ATCC 25922. The class given is cell-based. Particulars: ATCC 25922. As to the method: Minimum inhibitory concentration (MIC) was determined by broth microdilution according to CLSI guidelines. Blood agar plates were inoculated with glycerol stocks of Escherichia coli ATCC 25922, E. coli ATCC 25922 MCR-1, E. coli MCR-1 (clinical isolate from Utrecht Medical Center, NL), E. coli EQAS MCR-2 (clinical isolate from Wageningen University and Research, NL), Kiebsielia pneumoniae ATCC 11228, K. pneumoniae ATCC 13883, K. pneumonia 2048 (clinical isolate from Vrije Universiteit Amsterdam Medical Center, NL), K. pneumonia JS-123 (clinical isolate from Utrecht Medical Center, NL), Acinetobacter baumannii ATCC 17961, A. baumannil ATCC 17978, A. baumannii 2018-006 (clinical isolate from Rijksinstituut voor Volksgezondheid en Milieu, NL), A. baumannii MDR (clinical isolate from Vrije Universiteit Amsterdam Medical Center, NL), Pseudomonas aeruginosa ATCC 27853, P. aeruginosa PAO1, P. aeruginosa NRZ-03961 (Reference strain from Das Nationale Referenzzentrum für gramnegative Krankenhauserreger, DE), P. aeruginosa M-120 (clinical isolate from Leiden University Medical Center, NL) and Staphylococcus aureus USA300 (clinical isolate from Texas Children's Hospitalm, USA). E. coli 25922 MCR1 was grown on LB agar supplemented with kanamycin. The inoculated agar plates were then incubated for 16 hours at 37° C. Individually grown colonies were subsequently used to inoculate 3 mL aliquots of TSB that were then incubated at 37° C. with shaking at 220 rpm. In parallel, the compounds to be assessed were serially diluted with Mueller-Hinton broth (MHB) in polypropylene 96-well plates (50 μL in each well). Once the OD600 of the bacterial suspensions reached 0.5, the bacteria were diluted with MHB (final concentration 2×10^5 CFU mL^−1) and added to the microplates containing the test compounds (50 μL to each well, final volume: 100 μL). The well-plates were sealed with an adhesive membrane and after 16 hours of incubation at 37° C. with shaking at 220 rpm the wells were visually inspected for bacterial growth. MIC values were defined as the lowest concentration of the compound that prevented visible growth of bacteria.
As to `CCC(C)CCC(=O)N[C@H](CO)C(=O)N[C@H](Cc1ccc(O)cc1)C(=O)N[C@H](Cc1c[nH]c2ccccc12)C(=O)N[C@H](CCCN)C(=O)N[C@@H](CCCN)C(=O)NCC(=O)N[C@H](CCCN)C(=O)N[C@@H](Cc1c[nH]c2ccccc12)C(=O)N[C@@H]1C(=O)N[C@@H]([C@@H](C)CC)C(=O)NCC(=O)N[C@@H](CO)C(=O)NCC(=O)O[C@@H]1C` (some centres unmarked) [Compound R1] ({Hexanoyl(4ξ-Me)}-[dS][dY][dW][dOrn][Orn]G[dOrn]WTIGSG; ester 9-C; N-terminus assumed), the “Minimum inhibitory concentration (MIC)” value stood at 2 µg/mL (≈ 1.29 µM). For the molecule `CCC(C)CCC(=O)N[C@H](CO)C(=O)N[C@H](Cc1ccc(O)cc1)C(=O)N[C@H](Cc1c[nH]c2ccccc12)C(=O)N[C@H](CCCN)C(=O)N[C@@H](CCCN)C(=O)NCC(=O)N[C@H](CCCN)C(=O)N[C@@H](Cc1c[nH]c2ccccc12)C(=O)N[C@@H]1C(=O)N[C@@H]([C@@H](C)CC)C(=O)NCC(=O)N[C@H](CO)C(=O)NCC(=O)O[C@@H]1C` (some centres unmarked) [Compound R2] ({Hexanoyl(4ξ-Me)}-[dS][dY][dW][dOrn][Orn]G[dOrn]WTIG[dS]G; ester 9-C; N-terminus assumed), the “Minimum inhibitory concentration (MIC)” value was determined as 2 µg/mL (≈ 1.29 µM).

Consider `CC[C@H](C)[C@@H]1NC(=O)[C@@H](NC(=O)[C@H](Cc2c[nH]c3ccccc23)NC(=O)[C@@H](CCCN)NC(=O)CNC(=O)[C@H](CCCN)NC(=O)[C@@H](CCCN)NC(=O)[C@@H](Cc2c[nH]c3ccccc23)NC(=O)[C@@H](Cc2ccc(O)cc2)NC(=O)[C@@H](CO)NC(=O)CCCCCC(C)C)[C@@H](C)OC(=O)CNC(=O)[C@H](CO)NC(=O)CNC1=O` [Compound R3] ({Octanoyl(7-Me)}-[dS][dY][dW][dOrn][Orn]G[dOrn]WTIGSG; ester 9-C; N-terminus assumed), for which the “Minimum inhibitory concentration (MIC)” value fell in the range of 2 to 4 µg/mL. For `CC[C@H](C)[C@@H]1NC(=O)[C@@H](NC(=O)[C@H](Cc2c[nH]c3ccccc23)NC(=O)[C@@H](CCCN)NC(=O)CNC(=O)[C@H](CCCN)NC(=O)[C@@H](CCCN)NC(=O)[C@@H](Cc2c[nH]c3ccccc23)NC(=O)[C@@H](Cc2ccc(O)cc2)NC(=O)[C@@H](CO)NC(=O)CCCCCC(C)C)[C@@H](C)OC(=O)CNC(=O)[C@@H](CO)NC(=O)CNC1=O` [Compound R4] ({Octanoyl(7-Me)}-[dS][dY][dW][dOrn][Orn]G[dOrn]WTIG[dS]G; ester 9-C; N-terminus assumed), the “Minimum inhibitory concentration (MIC)” value is 2 to 4 µg/mL. Consider `CCC(C)CCC(=O)N[C@H](CO)C(=O)N[C@H](Cc1ccc(O)cc1)C(=O)N[C@H](Cc1c[nH]c2ccccc12)C(=O)N[C@H](CCCN)C(=O)N[C@@H](CCCN)C(=O)NCC(=O)N[C@H](CCCN)C(=O)N[C@@H](Cc1c[nH]c2ccccc12)C(=O)N[C@@H]1C(=O)N[C@@H]([C@@H](C)CC)C(=O)NCC(=O)N[C@@H](CO)C(=O)N[C@@H](C)C(=O)O[C@@H]1C` (some centres unmarked) [Compound R5] ({Hexanoyl(4ξ-Me)}-[dS][dY][dW][dOrn][Orn]G[dOrn]WTIGSA; ester 9-C; N-terminus assumed), for which the “Minimum inhibitory concentration (MIC)” value worked out at 2 µg/mL (≈ 1.28 µM). Regarding `CCC(C)CCC(=O)N[C@H](CO)C(=O)N[C@H](Cc1ccc(O)cc1)C(=O)N[C@H](Cc1c[nH]c2ccccc12)C(=O)N[C@H](CCCN)C(=O)N[C@@H](CCCN)C(=O)NCC(=O)N[C@H](CCCN)C(=O)N[C@@H](Cc1c[nH]c2ccccc12)C(=O)N[C@@H]1C(=O)N[C@@H]([C@@H](C)CC)C(=O)NCC(=O)N[C@H](CO)C(=O)N[C@@H](C)C(=O)O[C@@H]1C` (some centres unmarked) [Compound R6] ({Hexanoyl(4ξ-Me)}-[dS][dY][dW][dOrn][Orn]G[dOrn]WTIG[dS]A; ester 9-C; N-terminus assumed), the “Minimum inhibitory concentration (MIC)” value was determined as 1 µg/mL (≈ 0.639 µM). As for `CCC(C)CCC(=O)N[C@H](CO)C(=O)N[C@H](Cc1ccc(O)cc1)C(=O)N[C@H](Cc1c[nH]c2ccccc12)C(=O)N[C@H](CCCN)C(=O)N[C@@H](CCCN)C(=O)NCC(=O)N[C@H](CCCN)C(=O)N[C@@H](Cc1c[nH]c2ccccc12)C(=O)N[C@@H]1C(=O)N[C@@H]([C@@H](C)CC)C(=O)NCC(=O)N[C@@H](CO)C(=O)N[C@H](C)C(=O)O[C@@H]1C` (some centres unmarked) [Compound R7] ({Hexanoyl(4ξ-Me)}-[dS][dY][dW][dOrn][Orn]G[dOrn]WTIGS[dA]; ester 9-C; N-terminus assumed), the “Minimum inhibitory concentration (MIC)” value came to 1 µg/mL (≈ 0.639 µM). For `CCC(C)CCC(=O)N[C@H](CO)C(=O)N[C@H](Cc1ccc(O)cc1)C(=O)N[C@H](Cc1c[nH]c2ccccc12)C(=O)N[C@H](CCCN)C(=O)N[C@@H](CCCN)C(=O)NCC(=O)N[C@H](CCCN)C(=O)N[C@@H](Cc1c[nH]c2ccccc12)C(=O)N[C@@H]1C(=O)N[C@@H]([C@@H](C)CC)C(=O)NCC(=O)N[C@H](CO)C(=O)N[C@H](C)C(=O)O[C@@H]1C` (some centres unmarked) [Compound R8] ({Hexanoyl(4ξ-Me)}-[dS][dY][dW][dOrn][Orn]G[dOrn]WTIG[dS][dA]; ester 9-C; N-terminus assumed), the “Minimum inhibitory concentration (MIC)” value lay within 1 to 2 µg/mL. The value for `CC[C@H](C)[C@@H]1NC(=O)[C@@H](NC(=O)[C@H](Cc2c[nH]c3ccccc23)NC(=O)[C@@H](CCCN)NC(=O)CNC(=O)[C@H](CCCN)NC(=O)[C@@H](CCCN)NC(=O)[C@@H](Cc2c[nH]c3ccccc23)NC(=O)[C@@H](Cc2ccc(O)cc2)NC(=O)[C@@H](CO)NC(=O)CCCCCC(C)C)[C@@H](C)OC(=O)[C@H](C)NC(=O)[C@H](CO)NC(=O)CNC1=O` [Compound R9] ({Octanoyl(7-Me)}-[dS][dY][dW][dOrn][Orn]G[dOrn]WTIGSA; ester 9-C; N-terminus assumed) was 1 to 2 µg/mL. `CC[C@H](C)[C@@H]1NC(=O)[C@@H](NC(=O)[C@H](Cc2c[nH]c3ccccc23)NC(=O)[C@@H](CCCN)NC(=O)CNC(=O)[C@H](CCCN)NC(=O)[C@@H](CCCN)NC(=O)[C@@H](Cc2c[nH]c3ccccc23)NC(=O)[C@@H](Cc2ccc(O)cc2)NC(=O)[C@@H](CO)NC(=O)CCCCCC(C)C)[C@@H](C)OC(=O)[C@H](C)NC(=O)[C@@H](CO)NC(=O)CNC1=O` [Compound R10] ({Octanoyl(7-Me)}-[dS][dY][dW][dOrn][Orn]G[dOrn]WTIG[dS]A; ester 9-C; N-terminus assumed): the “Minimum inhibitory concentration (MIC)” value fell in the range of 1 to 2 µg/mL. Turning to `CC[C@H](C)[C@@H]1NC(=O)[C@@H](NC(=O)[C@H](Cc2c[nH]c3ccccc23)NC(=O)[C@@H](CCCN)NC(=O)CNC(=O)[C@H](CCCN)NC(=O)[C@@H](CCCN)NC(=O)[C@@H](Cc2c[nH]c3ccccc23)NC(=O)[C@@H](Cc2ccc(O)cc2)NC(=O)[C@@H](CO)NC(=O)CCCCCC(C)C)[C@@H](C)OC(=O)[C@@H](C)NC(=O)[C@H](CO)NC(=O)CNC1=O` [Compound R11] ({Octanoyl(7-Me)}-[dS][dY][dW][dOrn][Orn]G[dOrn]WTIGS[dA]; ester 9-C; N-terminus assumed), the “Minimum inhibitory concentration (MIC)” value came out at 1 µg/mL (≈ 0.628 µM). On to `CC[C@H](C)[C@@H]1NC(=O)[C@@H](NC(=O)[C@H](Cc2c[nH]c3ccccc23)NC(=O)[C@@H](CCCN)NC(=O)CNC(=O)[C@H](CCCN)NC(=O)[C@@H](CCCN)NC(=O)[C@@H](Cc2c[nH]c3ccccc23)NC(=O)[C@@H](Cc2ccc(O)cc2)NC(=O)[C@@H](CO)NC(=O)CCCCCC(C)C)[C@@H](C)OC(=O)[C@@H](C)NC(=O)[C@@H](CO)NC(=O)CNC1=O` [Compound R12] ({Octanoyl(7-Me)}-[dS][dY][dW][dOrn][Orn]G[dOrn]WTIG[dS][dA]; ester 9-C; N-terminus assumed), for which the “Minimum inhibitory concentration (MIC)” value is 1 to 2 µg/mL. For `CC[C@H](C)[C@H](NC(=O)[C@H](CN)NC(=O)[C@H](Cc1c[nH]c2ccccc12)NC(=O)[C@@H](CCCN)NC(=O)CNC(=O)[C@H](CCCN)NC(=O)[C@@H](CCCN)NC(=O)[C@@H](Cc1c[nH]c2ccccc12)NC(=O)[C@@H](Cc1ccc(O)cc1)NC(=O)[C@@H](CO)NC(=O)CCCCCC(C)C)C(=O)N[C@@H](CC(N)=O)C(=O)NCC(=O)NCC(N)=O` [Dap9-CONH2] ({Octanoyl(7-Me)}-[dS][dY][dW][dOrn][Orn]G[dOrn]W[Dap]INGG-NH2) the value was 4 µg/mL (≈ 2.49 µM); for `C=CCOC(=O)NC[C@H](NC(=O)[C@H](Cc1c[nH]c2ccccc12)NC(=O)[C@@H](CCCN)NC(=O)CNC(=O)[C@H](CCCN)NC(=O)[C@@H](CCCN)NC(=O)[C@@H](Cc1c[nH]c2ccccc12)NC(=O)[C@@H](Cc1ccc(O)cc1)NC(=O)[C@@H](CO)NC(=O)CCCCCC(C)C)C(=O)N[C@H](C(=O)N[C@@H](CC(N)=O)C(=O)NCC(=O)NCC(N)=O)[C@@H](C)CC` [Dap(Alloc)9-CONH2] ({Octanoyl(7-Me)}-[dS][dY][dW][dOrn][Orn]G[dOrn]W[Dap](Alloc)INGG-NH2), 2 µg/mL (≈ 1.18 µM).
